{
  "source": "patent US10952433B2",
  "about": "“Solutions for enhancing the effectiveness of insecticides and fungicides on living plants and related methods” (priority 2015, dated 2021)",
  "key": {"[1]": {"tested_on": "lepidopteran larvae: cabbage loopers (Trichoplusia ni) and beet armyworms (Spodoptera exigua)", "format": "in vivo", "conditions": "leaf discs", "how_it_was_run": "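Romaine lettuce leaf discs (⅝ inch) dipped about one second in treatment solution and infested with four cabbage loopers and four beet armyworms (3rd-4th instar) per container. Held dark at 15 °C, 80% RH; percent disc-area damage scored visually in 5% increments at 24, 48 and 72 h.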"}, "[2]": {"tested_on": "lepidopteran larvae: cabbage loopers (Trichoplusia ni) and beet armyworms (Spodoptera exigua)", "format": "in vivo", "conditions": "plants", "how_it_was_run": "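Romaine lettuce plants 2-3 inches tall were sprayed with 10 mL of insecticide (ppm) with buffer, amine oxide or buffered amine oxide at 200:1, then infested with 15 T. ni and 15 S. exigua larvae (5th-6th instar) per container. Leaf surface damage scored visually in 5% increments after 24 h.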"}, "[3]": {"conditions": "insecticide + CO3 buffer 200:1, no amine oxide, PPM: Chlorantranilopril 60, Acephate 70, Methoxyfenozide 100, Spinosad 30, Permethrin 10, Indoxacarb 50"}, "[4]": {"conditions": "insecticide + PO4 buffer 200:1, no amine oxide, PPM: Chlorantranilopril 60, Acephate 70, Methoxyfenozide 100, Spinosad 30, Permethrin 10, Indoxacarb 50"}, "[5]": {"conditions": "insecticide + amine oxide 12, no buffer, 200:1, PPM: Chlorantranilopril 60, Acephate 70, Methoxyfenozide 100, Spinosad 30, Permethrin 10, Indoxacarb 50"}, "[6]": {"conditions": "insecticide + amine oxide 1218, no buffer, 200:1, PPM: Chlorantranilopril 60, Acephate 70, Methoxyfenozide 100, Spinosad 30, Permethrin 10, Indoxacarb 50"}, "[7]": {"conditions": "insecticide + buffered amine oxide system CO3, 12, 200:1, PPM: Chlorantranilopril 60, Acephate 70, Methoxyfenozide 100, Spinosad 30, Permethrin 10, Indoxacarb 50"}, "[8]": {"conditions": "insecticide + buffered amine oxide system CO3, 1218, 200:1, PPM: Chlorantranilopril 60, Acephate 70, Methoxyfenozide 100, Spinosad 30, Permethrin 10, Indoxacarb 50"}, "[9]": {"conditions": "insecticide + buffered amine oxide system PO4, 12, 200:1, PPM: Chlorantranilopril 60, Acephate 70, Methoxyfenozide 100, Spinosad 30, Permethrin 10, Indoxacarb 50"}, "[10]": {"conditions": "insecticide + buffered amine oxide system PO4, 1218, 200:1, PPM: Chlorantranilopril 60, Acephate 70, Methoxyfenozide 100, Spinosad 30, Permethrin 10, Indoxacarb 50"}, "[11]": {"conditions": "insecticide alone, highest, PPM: Chlorantranilopril 120, Acephate 140, Methoxyfenozide 200, Spinosad 60, Permethrin 20, Indoxacarb 100"}, "[12]": {"conditions": "insecticide alone, increased, PPM: Chlorantranilopril 90, Acephate 105, Methoxyfenozide 150, Spinosad 45, Permethrin 15, Indoxacarb 75"}, "[13]": {"conditions": "insecticide alone, PPM: Chlorantranilopril 60, Acephate 70, Methoxyfenozide 100, Spinosad 30, Permethrin 10, Indoxacarb 50"}},
  "note": "Like-named read-outs stand apart in the source and are kept apart here.",
  "data": [
    {"smiles": "COc1cccc(C(=O)NN(C(=O)c2cc(C)cc(C)c2)C(C)(C)C)c1C", "note": "[Methoxyfenozide]", "values": [
      {"measurement": "Percent Lepidopteran Damage to Romaine Lettuce 24 hr", "setting": "[1]; [3]", "value": 96.0, "unit": "%"},
      {"measurement": "Percent Lepidopteran Damage to Romaine Lettuce 24 hr", "setting": "[1]; [4]", "value": 100.0, "unit": "%"},
      {"measurement": "Percent Lepidopteran Damage to Romaine Lettuce 24 hr", "setting": "[1]; [5]", "value": 79.5, "unit": "%"},
      {"measurement": "Percent Lepidopteran Damage to Romaine Lettuce 24 hr", "setting": "[1]; [6]", "value": 72.0, "unit": "%"},
      {"measurement": "Percent Lepidopteran Damage to Romaine Lettuce 24 hr", "setting": "[1]; [7]", "value": 42.5, "unit": "%"},
      {"measurement": "Percent Lepidopteran Damage to Romaine Lettuce 24 hr", "setting": "[1]; [8]", "value": 43.0, "unit": "%"},
      {"measurement": "Percent Lepidopteran Damage to Romaine Lettuce 24 hr", "setting": "[1]; [9]", "value": 54.5, "unit": "%"},
      {"measurement": "Percent Lepidopteran Damage to Romaine Lettuce 24 hr", "setting": "[1]; [10]", "value": 85.0, "unit": "%"},
      {"measurement": "Percent Lepidopteran Damage to Romaine Lettuce 24 hr", "setting": "[1]; [11]", "value": 100.0, "unit": "%"},
      {"measurement": "Percent Lepidopteran Damage to Romaine Lettuce 24 hr", "setting": "[1]; [12]", "value": 100.0, "unit": "%"},
      {"measurement": "Percent Lepidopteran Damage to Romaine Lettuce 24 hr", "setting": "[1]; [13]", "value": 84.0, "unit": "%"},
      {"measurement": "Percent Lepidopteran Damage to Romaine Lettuce 48 hr", "setting": "[1]; [3]", "value": 99.5, "unit": "%"},
      {"measurement": "Percent Lepidopteran Damage to Romaine Lettuce 48 hr", "setting": "[1]; [4]", "value": 100.0, "unit": "%"},
      {"measurement": "Percent Lepidopteran Damage to Romaine Lettuce 48 hr", "setting": "[1]; [5]", "value": 82.5, "unit": "%"},
      {"measurement": "Percent Lepidopteran Damage to Romaine Lettuce 48 hr", "setting": "[1]; [6]", "value": 80.5, "unit": "%"},
      {"measurement": "Percent Lepidopteran Damage to Romaine Lettuce 48 hr", "setting": "[1]; [7]", "value": 51.5, "unit": "%"},
      {"measurement": "Percent Lepidopteran Damage to Romaine Lettuce 48 hr", "setting": "[1]; [8]", "value": 67.0, "unit": "%"},
      {"measurement": "Percent Lepidopteran Damage to Romaine Lettuce 48 hr", "setting": "[1]; [9]", "value": 67.5, "unit": "%"},
      {"measurement": "Percent Lepidopteran Damage to Romaine Lettuce 48 hr", "setting": "[1]; [10]", "value": 87.0, "unit": "%"},
      {"measurement": "Percent Lepidopteran Damage to Romaine Lettuce 48 hr", "setting": "[1]; [11]", "value": 100.0, "unit": "%"},
      {"measurement": "Percent Lepidopteran Damage to Romaine Lettuce 48 hr", "setting": "[1]; [12]", "value": 100.0, "unit": "%"},
      {"measurement": "Percent Lepidopteran Damage to Romaine Lettuce 48 hr", "setting": "[1]; [13]", "value": 94.0, "unit": "%"},
      {"measurement": "Percent Lepidopteran Damage to Romaine Lettuce 72 hr", "setting": "[1]; [3]", "value": 100.0, "unit": "%"},
      {"measurement": "Percent Lepidopteran Damage to Romaine Lettuce 72 hr", "setting": "[1]; [4]", "value": 100.0, "unit": "%"},
      {"measurement": "Percent Lepidopteran Damage to Romaine Lettuce 72 hr", "setting": "[1]; [5]", "value": 87.0, "unit": "%"},
      {"measurement": "Percent Lepidopteran Damage to Romaine Lettuce 72 hr", "setting": "[1]; [6]", "value": 87.5, "unit": "%"},
      {"measurement": "Percent Lepidopteran Damage to Romaine Lettuce 72 hr", "setting": "[1]; [7]", "value": 57.0, "unit": "%"},
      {"measurement": "Percent Lepidopteran Damage to Romaine Lettuce 72 hr", "setting": "[1]; [8]", "value": 73.5, "unit": "%"},
      {"measurement": "Percent Lepidopteran Damage to Romaine Lettuce 72 hr", "setting": "[1]; [9]", "value": 73.0, "unit": "%"},
      {"measurement": "Percent Lepidopteran Damage to Romaine Lettuce 72 hr", "setting": "[1]; [10]", "value": 88.0, "unit": "%"},
      {"measurement": "Percent Lepidopteran Damage to Romaine Lettuce 72 hr", "setting": "[1]; [11]", "value": 100.0, "unit": "%"},
      {"measurement": "Percent Lepidopteran Damage to Romaine Lettuce 72 hr", "setting": "[1]; [12]", "value": 100.0, "unit": "%"},
      {"measurement": "Percent Lepidopteran Damage to Romaine Lettuce 72 hr", "setting": "[1]; [13]", "value": 96.0, "unit": "%"},
      {"measurement": "Percent Lepidopteran Damage to Romaine Lettuce 24 hr", "setting": "[2]; [3]", "value": 13.5, "unit": "%"},
      {"measurement": "Percent Lepidopteran Damage to Romaine Lettuce 24 hr", "setting": "[2]; [4]", "value": 22.0, "unit": "%"},
      {"measurement": "Percent Lepidopteran Damage to Romaine Lettuce 24 hr", "setting": "[2]; [5]", "value": 28.0, "unit": "%"},
      {"measurement": "Percent Lepidopteran Damage to Romaine Lettuce 24 hr", "setting": "[2]; [6]", "value": 13.0, "unit": "%"},
      {"measurement": "Percent Lepidopteran Damage to Romaine Lettuce 24 hr", "setting": "[2]; [7]", "value": 8.0, "unit": "%"},
      {"measurement": "Percent Lepidopteran Damage to Romaine Lettuce 24 hr", "setting": "[2]; [8]", "value": 9.0, "unit": "%"},
      {"measurement": "Percent Lepidopteran Damage to Romaine Lettuce 24 hr", "setting": "[2]; [9]", "value": 7.5, "unit": "%"},
      {"measurement": "Percent Lepidopteran Damage to Romaine Lettuce 24 hr", "setting": "[2]; [10]", "value": 4.5, "unit": "%"},
      {"measurement": "Percent Lepidopteran Damage to Romaine Lettuce 24 hr", "setting": "[2]; [11]", "value": 23.5, "unit": "%"},
      {"measurement": "Percent Lepidopteran Damage to Romaine Lettuce 24 hr", "setting": "[2]; [12]", "value": 43.0, "unit": "%"},
      {"measurement": "Percent Lepidopteran Damage to Romaine Lettuce 24 hr", "setting": "[2]; [13]", "value": 29.5, "unit": "%"}
    ]}
  ]
}
